AUC, Cmax and IC50 data for 14 molecules are collected here from patent publication US20260070887A1 (Shenzhen Zhongge Biological Technology Co., Ltd., priority 2022, published 2026).

Each structure is given as a SMILES string. Read-outs that look alike come from different tables or passages of the source.

A short description of one data set: PK study in ICR mice. The format is in vivo, mouse. Particulars: plasma, route and dose not given. The method, then: 6 ICR mice (male/female) were divided into two groups, administered orally and intravenously, respectively, with 3 mice/group. The mice were fasted for 10-14 hours prior to dosing with free access to water.
The test compound was weighed according to the administration dose, and prepared into a dose formulation at appropriate concentrations (for rats and mice, intravenous and oral administration at a volume of 5 mL/kg and 10 mL/kg, respectively), wherein the intravenous injection was a clear solution, and the oral preparation was a clear solution or a homogeneous suspension.
Animals were dosed by intravenous injection and oral gavage, and blood samples were collected at 0.033, 0.083, 0.25, 0.5, 1, 2, 4, 8, and 24 h after intravenous administration and 0.083, 0.25, 0.5, 1, 2, 4, 6, 8, and 24 h after oral administration. Whole blood was centrifuged at 6800 g for 6 min at 4° C. and the top plasma was stored in a −80° C. freezer for later analysis.
The DMSO stock solution of the test compound was diluted into a series of working solutions with a methanol or an acetonitrile solution, and added to a blank plasma matrix, and standard curves were generated and quality control samples were prepared. An appropriate volume of the plasma sample was taken and a suitable multiple of methanol or acetonitrile containing an internal standard was added for protein precipitation based on the response. After centrifugation of all samples at 18000 g for 10 min at 4° C., an appropriate amount of supernatant was taken for LC-MS/MS injection analysis.
Drug concentration-time curves in plasma were plotted according to test concentrations, and pharmacokinetic parameters were calculated using noncompartmental analysis by WinNonlin software, including: half-life (T½), area under the concentration-time curve from time zero to time t (AUCO-t), clearance (CL), volume of distribution at steady state (Vss) and bioavailability (F), with some of the test results shown in Table 4.

The test system of a further data set is HT-29 cells. Nature of the data set: HT-29 cell proliferation (Cell Titer-Glo, 6 days). The class given is cell-based. The method, then:
The inhibitory effect on the KIF18A target by the compounds of the present disclosure was evaluated by testing the inhibitory effect on proliferation of HT-29 cells by the compounds of the present disclosure.
HT-29 (ATCC, HTB-38) cells were cultured in McCoy's 5a complete medium (Gibco, 12330-031) containing 10% fetal bovine serum (Gibco, 10099-141C), 100 U penicillin and […] streptomycin (Gibco, 15140-122). The Promega kit Cell Titer-Glo (Promega: G7572) was used in this method for test. • 1. HT-29 cells were cultured in T75 cell flasks (Corning, 430641) and the medium was placed in a 37° C., 5% CO2 incubator. Cells were passaged when reaching a cell density of 70%-80%, approximately twice per week. • 2. To perform the experiment, the test compounds were dissolved in DMSO to prepare a 10 mM stock solution, and the test compounds were added to the 384-well cell test plate (Corning, 3765) at the predetermined concentration using ECHO. • 3. The cell culture flask was taken out, the medium was removed, and the cells were rinsed with PBS. Then 2 mL of trypsin (with 0.25% EDTA) was added, and the flask was placed in the incubator for digestion for 4 minutes. • 4. Digestion was stopped by adding 4 mL of complete medium and the cell suspension was transferred to a centrifuge tube and centrifuged at 1000 rpm for 4 minutes. • 5. The cells were resuspended in 6 mL of complete medium, followed by cell counting. The cell density was adjusted to 4,170 cells/mL, and the cells were added to a 384-well plate at 60 μL/well. • 6. The 384-well plate was centrifuged at 500 rpm for 1 minute, and then placed in a 37° C., 5% CO2 incubator for 6 days of cultivation. • 7. Six days later, the cell culture plate was equilibrated for 10 minutes at room temperature, 25 μL of Cell Titer-Glo was added to each well, and the mixture was shaken and mixed well and let stand for 5 minutes. The luminescence values for samples in various wells were read using a microplate reader in Luminescence mode.
The percentage of inhibition of cell proliferation by the test compound at each concentration was calculated by comparing with the values of the control group (0.3% DMSO). The IC50 values of the compounds were obtained by concentration-inhibition rate nonlinear regression analysis of the test compounds using GraphPad Prism 9.

The test system of a further data set is OVCAR-3 cells. The data set can be described thus: OVCAR-3 cell proliferation (Cell Titer-Glo, 10 days). The format is cell-based, human. The method in brief:
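400 cells per well were seeded onto pre-dispensed compound (final 0.12 nM to 10 μM) in RPMI-1640 with 20% FBS and insulin, then co-cultured for 10 days. Viability was read as Cell Titer-Glo luminescence, inhibition was taken against 0.1% DMSO control, and IC50 came from nonlinear concentration-inhibition regression.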
In general terms: Cellular ATP, detected with luciferase, serves as a proxy for viable cell number.

A further data set concerns the target KIF18A (Homo sapiens (Human), UniProt Q8NI77). The data set can be described thus: KIF18A ATPase activity under tubulin stimulation (ADP-Glo assay). The format is biochemical. Particulars: KIF18A 30 nM, ATP 150 μM, pig microtubules. (In general: In ADP-Glo the light output rises with the ADP produced.)
Setting [1] is: both sexes, mouse, read-out: AUC.
Setting [2] is: both sexes, mouse, read-out: Cmax.

Sequence of KIF18A (Q8NI77 whole entry): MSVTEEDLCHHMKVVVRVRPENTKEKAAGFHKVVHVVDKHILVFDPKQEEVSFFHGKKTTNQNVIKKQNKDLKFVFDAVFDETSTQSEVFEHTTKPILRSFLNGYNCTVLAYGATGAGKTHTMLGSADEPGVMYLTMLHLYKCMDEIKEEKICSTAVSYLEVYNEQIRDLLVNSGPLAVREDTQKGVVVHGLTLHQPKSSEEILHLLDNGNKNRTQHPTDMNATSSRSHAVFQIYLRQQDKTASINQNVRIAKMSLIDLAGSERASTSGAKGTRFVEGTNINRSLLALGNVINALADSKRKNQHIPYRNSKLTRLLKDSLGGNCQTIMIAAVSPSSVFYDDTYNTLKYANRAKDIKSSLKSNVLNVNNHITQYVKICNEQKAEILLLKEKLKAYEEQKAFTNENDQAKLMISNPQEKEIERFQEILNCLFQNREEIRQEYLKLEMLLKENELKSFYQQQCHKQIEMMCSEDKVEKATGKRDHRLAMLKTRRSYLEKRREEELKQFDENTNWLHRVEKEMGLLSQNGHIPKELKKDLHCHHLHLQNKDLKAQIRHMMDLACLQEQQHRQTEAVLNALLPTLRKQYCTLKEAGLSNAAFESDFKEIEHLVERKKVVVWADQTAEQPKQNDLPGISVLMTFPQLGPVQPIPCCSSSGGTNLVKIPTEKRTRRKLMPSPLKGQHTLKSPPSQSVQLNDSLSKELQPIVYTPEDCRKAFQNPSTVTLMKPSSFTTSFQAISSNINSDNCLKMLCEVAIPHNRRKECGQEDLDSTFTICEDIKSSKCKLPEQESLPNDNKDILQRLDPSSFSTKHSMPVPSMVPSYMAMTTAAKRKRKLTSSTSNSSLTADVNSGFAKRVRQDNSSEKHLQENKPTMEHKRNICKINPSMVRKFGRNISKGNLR
Sequence of KIF18A (P02550 whole entry partner): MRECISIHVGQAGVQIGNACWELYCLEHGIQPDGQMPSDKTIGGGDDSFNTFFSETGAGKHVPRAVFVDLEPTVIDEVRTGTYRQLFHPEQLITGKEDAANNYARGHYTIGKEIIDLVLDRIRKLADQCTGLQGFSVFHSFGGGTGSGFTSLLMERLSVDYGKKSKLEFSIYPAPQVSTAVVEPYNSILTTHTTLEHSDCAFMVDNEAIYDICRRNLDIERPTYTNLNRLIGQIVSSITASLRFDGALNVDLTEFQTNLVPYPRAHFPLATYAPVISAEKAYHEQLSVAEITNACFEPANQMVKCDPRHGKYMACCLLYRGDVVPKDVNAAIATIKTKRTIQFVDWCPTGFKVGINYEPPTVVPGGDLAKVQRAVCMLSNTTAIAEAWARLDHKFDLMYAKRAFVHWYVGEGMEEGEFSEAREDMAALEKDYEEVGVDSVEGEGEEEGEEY
Sequence of KIF18A (P02554 whole entry partner): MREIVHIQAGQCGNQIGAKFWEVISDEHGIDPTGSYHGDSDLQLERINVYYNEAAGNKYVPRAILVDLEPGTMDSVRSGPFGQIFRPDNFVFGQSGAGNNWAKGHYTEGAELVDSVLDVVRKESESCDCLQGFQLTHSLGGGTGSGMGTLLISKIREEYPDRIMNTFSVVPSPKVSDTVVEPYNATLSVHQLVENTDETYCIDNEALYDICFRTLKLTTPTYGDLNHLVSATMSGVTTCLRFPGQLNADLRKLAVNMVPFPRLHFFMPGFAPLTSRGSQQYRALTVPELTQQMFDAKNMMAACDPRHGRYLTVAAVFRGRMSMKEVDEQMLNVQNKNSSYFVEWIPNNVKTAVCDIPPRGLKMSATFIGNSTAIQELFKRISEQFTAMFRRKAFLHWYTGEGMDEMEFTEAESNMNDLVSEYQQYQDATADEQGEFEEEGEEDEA

As usually defined, the AUC is concentration integrated over time. One may read the Cmax as the highest concentration seen after dosing. Usually IC50 stands for the midpoint of a concentration-inhibition curve. The low end stands for greater potency in that assay, the high end for weaker potency in that assay. Turning to `O=C(Nc1cccc2c1cc1n2CCC(F)(F)C1O)c1ccc(NS(=O)(=O)CCO)cc1N1CCC2(CC1)CC2` (single isomer, unassigned) [Compound 384-P1, N-(8,8-difluoro-9-hydroxy-6,7,8,9-tetrahydropyridino[1,2-a]indol-1-yl)-4-((2-hydroxyethyl)sulfonamido)-2-(6-azaspiro[2.5]oct-6-yl)benzamide], in “PK study in ICR mice” (setting [1]), the AUC turned out to be 1290 ng·h/mL. Moreover, the Cmax in “PK study in ICR mice” (setting [2]) is 366 ng/mL. The IC50 in the data set with HT-29 cells (Homo sapiens, HT-29, 144 h) is no more than 200 nM; in the data set on OVCAR-3 cells (Homo sapiens, OVCAR-3, 240 h) it was no more than 50 nM; on KIF18A, no more than 50 nM.
For the molecule `O=C(Nc1cccc2c1cc1n2CCC(F)(F)C1O)c1ccc(NS(=O)(=O)CCO)cc1N1CCC2(CC1)CC2` (single isomer, unassigned) [Compound 384-P2, N-(8,8-difluoro-9-hydroxy-6,7,8,9-tetrahydropyridino[1,2-a]indol-1-yl)-4-((2-hydroxyethyl)sulfonamido)-2-(6-azaspiro[2.5]oct-6-yl)benzamide], the IC50 with HT-29 cells is no more than 200 nM; in the data set on OVCAR-3 cells, no more than 50 nM; on KIF18A it was 50 to 500 nM.
As for `[2H]C([2H])([2H])OC1c2cc3c(NC(=O)c4ccc(NS(=O)(=O)CCO)cc4N4CCC5(CC4)CC5)cccc3n2CCC1(F)F` (single isomer, unassigned) [Compound 385-P2, N-(8,8-difluoro-9-(methoxy-d3)-6,7,8,9-tetrahydropyridino[1,2-a]indol-1-yl)-4-((2-hydroxyethyl)sulfonamido)-2-(6-azaspiro[2.5]oct-6-yl)benzamide], the IC50 is no more than 200 nM with HT-29 cells and no more than 50 nM in the data set on OVCAR-3 cells.
`[2H]C([2H])([2H])OC1c2cc3c(NC(=O)c4ccc(NS(=O)(=O)CCO)cc4N4CCC(=C(F)F)CC4)cccc3n2CCC1(F)F` (single isomer, unassigned) [Compound 386-P2, N-(8,8-difluoro-9-(methoxy-d3)-6,7,8,9-tetrahydropyridino[1,2-a]indol-1-yl)-2-(4-(difluoromethylene)piperidin-1-yl)-4-((2-hydroxyethyl)sulfonamido)benzamide]: the values for the IC50 with HT-29 cells, in the data set on OVCAR-3 cells and at KIF18A were no more than 200 nM, 50 to 500 nM and no more than 50 nM, respectively.
For `[2H]C([2H])([2H])OC1c2cc3c(NC(=O)c4ccc(NS(=O)(=O)CCO)cc4N4CCC5(CC4)CC5)cccc3n2CCC1(F)F` (stereo not shown) [Compound 385, N-(8,8-difluoro-9-(methoxy-d3)-6,7,8,9-tetrahydropyridino[1,2-a]indol-1-yl)-4-((2-hydroxyethyl)sulfonamido)-2-(6-azaspiro[2.5]oct-6-yl)benzamide], the IC50 in the data set with HT-29 cells (Homo sapiens, HT-29, 144 h) is no more than 200 nM; with OVCAR-3 cells, no more than 50 nM; at KIF18A, 50 to 500 nM.
For the molecule `[2H]C([2H])([2H])OC1c2cc3c(NC(=O)c4ccc(NS(=O)(=O)CCO)cc4N4CCC(=C(F)F)CC4)cccc3n2CCC1(F)F` (stereo not shown) [Compound 386, N-(8,8-difluoro-9-(methoxy-d3)-6,7,8,9-tetrahydropyridino[1,2-a]indol-1-yl)-2-(4-(difluoromethylene)piperidin-1-yl)-4-((2-hydroxyethyl)sulfonamido)benzamide], the IC50 in the data set on HT-29 cells (Homo sapiens, HT-29, 144 h) is 200 to 1000 nM; in the data set on OVCAR-3 cells, 50 to 500 nM; at KIF18A, 50 to 500 nM.
For `CC1(C)OCCn2c1cc1c(NC(=O)c3ccc(NS(=O)(=O)CCO)cc3N3CCC4(CC3)CC4)cccc12` [Compound 396, N-(1,1-dimethyl-3,4-dihydro-1H-[1,4]oxazino[4,3-a]indol-9-yl)-4-((2-hydroxyethyl)sulfonamido)-2-(6-azaspiro[2.5]octan-6-yl)benzamide], the IC50 in the data set on HT-29 cells (Homo sapiens, HT-29, 144 h) was no more than 200 nM; in the data set with OVCAR-3 cells (Homo sapiens, OVCAR-3, 240 h), no more than 50 nM; against KIF18A, 50 to 500 nM.
With `CC1=CCCn2c1cc1c(NC(=O)c3ccc(NS(=O)(=O)CCO)cc3N3CCC4(CC3)CC4)cccc12` [Compound 410, 4-(2-hydroxyethyl)sulfonamido-N-(9-methyl-6,7-dihydropyridino[1,2-a]indol-1-yl)-2-(6-azaspiro[2.5]octan-6-yl)benzamide], the AUC in the data set “PK study in ICR mice” (setting [1]) stood at 16400 ng·h/mL. For the same molecule, in “PK study in ICR mice” (setting [2]), the highest concentration (Cmax) stood at 2790 ng/mL. Besides, the IC50 with HT-29 cells (Homo sapiens, HT-29, 144 h) is no more than 200 nM; with OVCAR-3 cells (Homo sapiens, OVCAR-3, 240 h) it was no more than 50 nM; on KIF18A, 50 to 500 nM.
For `O=C(Nc1ccc(F)c2c1nc1n2CCOC1)c1ccc(NS(=O)(=O)CCO)cc1N1CCC(=C(F)F)CC1` [Example 323, 2-(4-(difluoromethylene)piperidin-1-yl)-N-(6-fluoro-3,4-dihydro-1H-benzo[4,5]imidazo[2,1-c][1,4]oxazin-9-yl)-4-((2-hydroxyethyl)sulfonamide)benzamide], in the data set “PK study in ICR mice”, the AUC amounted to 4113 ng·h/mL and the Cmax stood at 762 ng/mL. Also, in the data set on OVCAR-3 cells, the IC50 is no more than 50 nM. This molecule also registered an IC50 against KIF18A of no more than 50 nM.
As to `O=C(Nc1ccnc2c1cc1n2CCC(F)(F)C1)c1ccc(NS(=O)(=O)CCO)cc1N1CCC(=C(F)F)CC1` [Example 376], the IC50 in the data set on HT-29 cells was 200 to 1000 nM; in the data set on OVCAR-3 cells it was no more than 50 nM; against KIF18A, no more than 50 nM.
As for `O=C(Nc1ccnc2c1cc1n2CCC(F)(F)C1)c1ccc(NS(=O)(=O)CCO)cc1N1CCC2(CC1)CC2` [Example 380, N-(7,7-difluoro-6,7,8,9-tetrahydropyridin[3,2-b]indolizin-4-yl)-4-((2-hydroxyethyl)sulfonamido)-2-(6-azaspiro[2.5]oct-6-yl)benzamide], the IC50 with HT-29 cells is no more than 200 nM; in the data set with OVCAR-3 cells, no more than 50 nM; on KIF18A, no more than 50 nM.
As for `CNc1cc(NS(=O)(=O)CCO)cc(N2CCC3(CC2)CC3)c1C(=O)Nc1ccc(OC)c(N2CCC(F)(F)CC2)n1` [Example 491, N-(6-(4,4-difluoropiperidin-1-yl)-5-methoxypyridin-2-yl)-4-((2-hydroxyethyl)sulfonamido)-2-(methylamino)-6-(6-azaspiro[2.5]oct-6-yl)benzamide], the AUC in the data set “PK study in ICR mice” (setting [1]) was 24800 ng·h/mL. For the same molecule, in the data set “PK study in ICR mice” (setting [2]), the Cmax was determined as 2300 ng/mL. Also, the IC50 in the data set with OVCAR-3 cells (Homo sapiens, OVCAR-3, 240 h) is no more than 50 nM; on KIF18A it was 50 to 500 nM.
In the same order, the values of `CCOc1ccc(NC(=O)c2ccc(NS(=O)(=O)CCO)cc2N2CCC3(CC2)CC3)c2cc3n(c12)CC(C)(C)OC3` [Example 535, N-(6-ethoxy-3,3-dimethyl-3,4-dihydro-1H-[1,4]oxazino[4,3-a]indol-9-yl)-4-((2-hydroxyethyl)sulfonamido)-2-(6-azaspiro[2.5]octan-6-yl)benzamide] are 101000 ng·h/mL, 8370 ng/mL, no more than 50 nM and 50 to 500 nM.
Taken in the same sequence, the figures for `O=C(Nc1ccc(OC(F)F)c2c1cc1n2CCC(F)(F)C1)c1ccc(NS(=O)(=O)CCO)cc1N1CCC2(CC1)CC2` [Example 583] were 43300 ng·h/mL, 4410 ng/mL, no more than 50 nM and 50 to 500 nM.
